Measured values reported in paper PMC8847585, “Induction of senescence-associated secretory phenotype underlies the therapeutic efficacy of PRC2 inhibition in cancer” (Cell Death & Disease, 2022).

Assays:
H3K27me3 in HeLa cell = experiment: Inhibition of cellular H3K27me3 (western blot quantification); format: cell-based; settings: Homo sapiens, 72 hr of treatment, n = 3
Method: Cells were washed once with cold PBS and lysed by RIPA lysis buffer and incubated with 4 × SDS loading buffer at 95 °C for 10 min. Whole cell proteins were used for electrophoresis and then transferred to a nitrocellulose membrane. The membrane was blocked with Tris buffered saline containing 0.075% Tween-20 and 5% non-fat milk. Then the membranes were incubated with primary antibodies overnight at 4 °C. The next day, membranes were incubated with secondary antibodies for 1 h at room temperature.

[1] = tested on: WSU-DLCL2 (EZH2-Y641F) cell; experiment: Anti-proliferation of lymphoma cell WSU-DLCL2, viable cell count; format: cell-based; settings: Homo sapiens, WSUDLCL2, 216 h, read-out: IC50 of proliferation inhibition
Method: (§1) Viable cell numbers were counted every 3 days up to 15 days by Vi-CELL (Beckman Coulter). For cell cycle analysis, MAK683 treated cells were fixed with pre-chilled 70% ethanol and kept at -20 degree overnight. On the second day, the cells were washed with cold PBS twice and collected by spin at 1000 rpm, digested with RNase A, then stained with 10 μg /mL Propidium Iodide in PBS solution for 30 min at room temperature. The stained cell samples were filtered through 70 μm cell strainer, and the staining signals were detected using flow cytometer (BD Fortessa). The acquired data were further analyzed by Modfit LT.

A204 cells = experiment: Cancer cell proliferation, viable cell count; format: cell-based; settings: A204 (SMARCB1 deficiency), up to 15 days
Method: as §1

A2780 cells = experiment: Cancer cell proliferation, viable cell count; format: cell-based; settings: A2780 (ARID1A-deficiency), up to 15 days
Method: as §1

G401 cells = experiment: Cancer cell proliferation, viable cell count; format: cell-based; settings: G401 (SMARCB1 deficiency), up to 15 days
Method: as §1

G402 cells = experiment: Cancer cell proliferation, viable cell count; format: cell-based; settings: G402 (SMARCB1 deficiency), up to 15 days
Method: as §1

HeLa cells = experiment: Cancer cell proliferation, viable cell count; format: cell-based; settings: up to 15 days
Method: as §1

Hs700T cells = experiment: Cancer cell proliferation, viable cell count; format: cell-based; settings: Hs700T (SMARCA4-deficiency), up to 15 days
Method: as §1

MCAS cells = experiment: Cancer cell proliferation, viable cell count; format: cell-based; settings: up to 15 days
Method: as §1

RD cells = experiment: Cancer cell proliferation, viable cell count; format: cell-based; settings: up to 15 days
Method: as §1

p16 KO G401 cells = experiment: Proliferation of p16 KO G401 cells, viable cell count; format: cell-based; settings: p16 KO G401 clones vs G401; MAK683 at 1 μM (proliferation), 3 μM 3 days (cell cycle)
Method: as §1
Two pairs of guide RNAs (Supplementary Table 1) targeting the exon2 of human CDKN2A (NM_000077) were designed using ChopChop website. gRNA oligos were synthesized, annealed and subcloned into the pSpCas9(BB)-2A-GFP (PX458). G401 and A2780 cell lines were transfected with the resultant plasmids, cultured for 48 h, and then applied to the single cell sorting for selecting GFP-positive cell by flow cytometer. Single cell clones were first cultured each well of 96-well plate, and then gradually expanded in larger cultures for further experiments. […]

G401 xenograft tumors = experiment: Subcutaneous G401 xenograft tumor study; format: in vivo, mice
Method: (§2) The animal study design and performance were evaluated and approved by Institutional Animal Care and Use Committee of ShanghaiTech University under the document number of 20201225001 and following the internationally recognized guidelines on animal welfare. To establish G401 xenograft models, WT G401 or p16 knock out cells were washed and resuspended in cold PBS and mixed with Matrigel at 1:1 (v/v) to reach the final ratio of 5 × 10^6 cells per 200 μL. Then the tumor cell mix were injected subcutaneously into the right flank of female Balb/c nude mice (5–6 weeks of age).
(§3) When tumor volume reached around 60-350 mm^3, the mice were numbered and randomized into vehicle or 100 mg/kg MAK683 treatment groups. The random numbers were generated using Excel (Software). The mice with tumor size out of the range were not included in the study. Empirically, at least 6 mice were included for each group. For compound dosing, MAK683 was resolved and suspended in water with 0.5% HPMC and 0.5% Tween at the concentration of 10 mg/mL. Dosing without blinding took place very day in the morning around 8 am. Mice weight and tumor volumes are measured and recorded every 3 days. Tumor volumes were calculated based on perpendicular length and width caliper measurements using the following formula: tumor volume (mm^3) = 0.5 × (length × width^2).
(§4) Tumor tissues were fixed in freshly-prepared 4% PFA for 24 hours, dehydrated through 30%, 50%, 70%, 85%, and 90% ethanol five-minute each, and 100% ethanol triple, permeabilized through xylene five-minute twice and then embedded in paraffin, and finally cut into 5 μm-thick sections. The sections were de-paraffinized with xylene for 10 min triple, rehydrated with ethanol from high to low concentration five minutes each and dH2O twice. […] After cool down to room temperature, endogenous peroxidase was inactivated with 3% H2O2 in methanol. Then the sections were washed with dH2O twice, blocked with 5% normal goat serum in PBS with 0.25% Triton X-100 for 1 hour at room temperature followed by primary antibodies incubation overnight at 4 °C. After HRP-conjugated secondary antibodies were incubated for 1 hours at room temperature, the sections were visualized with DAB. For quantification of Ki-67, H3K27me3 or ITGA2 positivity, the ratios of DAB positive cells to total cells in five representative fields were counted. For quantification of F4/80 positivity, the ratios of DAB positive area to total cells were counted. Five 40 × objective magnification fields per selection were counted and averaged.
Cell senescence study was used by Beyotime in Situ β-galactosidase Staining Kit. Adherent cells were fix by fix-buffer for 15 min at room temperature and wash with PBS twice, then stain by stain-buffer mixture at 37 °C overnight. Frozen tissue sections were counterstained with eosin.

p16 KO xenograft tumors = experiment: Subcutaneous p16 KO G401 xenograft tumor study; format: in vivo, mice
Method: as §2, §3, §4
Cell senescence study was used by Beyotime in Situ β-galactosidase Staining Kit. Adherent cells were fix by fix-buffer for 15 min at room temperature and wash with PBS twice, then stain by stain-buffer mixture at 37 °C overnight. […]

[2] = Body weight of tumor-bearing animals; format: in vivo; settings: 100 mg/kg daily, G401 xenograft-bearing mice, 25 days
Method: as §3

[3] = 100 mg/kg po qd, 25 days treatment
[4] = WT G401 tumor, 100 mg/kg, continuous treatment 46 days, treatment endpoint
[5] = p16 KO xenograft, 100 mg/kg, continuous treatment 46 days, treatment endpoint

Question: With `CS(=O)(=O)c1ccc(-c2cnc(NCc3ccco3)n3cnnc23)cc1` [EED226] as the compound, how does the IC50 (H3K27me3 in HeLa cell) read?
Answer: 210 nM

Question: And the IC50 [1]?
Answer: 35.9 nM

Question: Which results are given for `Cc1ncccc1-c1cnc(NCc2c(F)ccc3c2CCO3)n2cnnc12` [MAK683]?
Answer: IC50 (H3K27me3 in HeLa cell): 1.01 nM; IC50 [1]: 1.15 nM; Sensitivity of proliferation to treatment (A204 cells): sensitive; Sensitivity of proliferation to treatment (A2780 cells): moderately sensitive; Sensitivity of proliferation to treatment (G401 cells): sensitive; Sensitivity of proliferation to treatment (G402 cells): sensitive; Sensitivity of proliferation to treatment (HeLa cells): not sensitive; Sensitivity of proliferation to treatment (Hs700T cells): moderately sensitive; Sensitivity of proliferation to treatment (MCAS cells): not sensitive; Sensitivity of proliferation to treatment (RD cells): not sensitive; Response of p16 KO cells to induced cell cycle arrest and proliferation blockage (p16 KO G401 cells): partially resistant; TGI (G401 xenograft tumors; [3]): 67.20%; Tumor volume T/C% (G401 xenograft tumors; [3]): 30.55%; Ki-67 in treated tumors (IHC) (G401 xenograft tumors; 100 mg/kg po qd, day 25): significantly reduced; SA-β-gal activity in treated tumors (G401 xenograft tumors; 100 mg/kg po qd, day 25): increased; H3K27me3 in treated tumors (IHC) (G401 xenograft tumors; 100 mg/kg po qd, day 25, 4 h post treatment): significantly decreased; T/C% (G401 xenograft tumors; [4]): 7.21%; TGI (G401 xenograft tumors; [4]): 91.25%; Ki67 positivity in tumors (G401 xenograft tumors; WT tumors, 46 days): reduced; SA-β-gal signal in tumors (G401 xenograft tumors; WT tumors, 46 days): increased; Ki67 positivity in tumors (p16 KO xenograft tumors; p16 KO tumors, 46 days): reduced; T/C% (p16 KO xenograft tumors; [5]): 35.81%; TGI (p16 KO xenograft tumors; [5]): 54.18%; SA-β-gal signal in tumors (p16 KO xenograft tumors; p16 KO xenografts, 46 days): unchanged; Animals' body weight [2]: unaffected

Question: With `CCN(c1cc(-c2ccc(CN3CCOCC3)cc2)cc(C(=O)NCc2c(C)cc(C)[nH]c2=O)c1C)C1CCOCC1` [EPZ6438] as the compound, how does the “Sensitivity of proliferation to treatment” value (from here on “Sensitivity of proliferation”) (A2780 cells) read?
Answer: similarly inhibited the proliferation

Question: And the “Sensitivity of proliferation” value (HeLa cells)?
Answer: not sensitive

Question: And the “Sensitivity of proliferation” value (MCAS cells)?
Answer: not sensitive

Question: What about the “Sensitivity of proliferation” value (RD cells) of the same compound?
Answer: not sensitive
